According to EP0565593B1, “REDUCING PESTICIDAL INTERACTIONS IN CROPS” (priority 1990, dated 1992):
Where two headings read alike, the source gives them in different places.

How the values were obtained:
Shattercane (SHCA) = format: in vivo
Velvetleaf (VELE) [1] = format: in vivo, Abutilon theophrasti
Giant foxtail (GIFT) = assay: whole plant or invertebrate; format: in vivo; conditions: Setaria faberi, iv, 312 h, Table 51; Herbicide No. 18 0.14 Kg/Ha; where applied Biocide No. 8 8.96 kg/Ha and antidote 4.48 Kg/Ha; all PPI; observed 13 days after treatment
Velvetleaf (VELE) [2] = assay: whole plant or invertebrate; format: in vivo, Abutilon theophrasti; conditions: Abutilon theophrasti, iv, Herbicide No. 18 0.14 Kg/Ha, all PPI
SJCA = assay: Greenhouse test Procedure IV: herbicide, biocide and antidote PPI, weed SJCA (Examples 53-55; Tables 52-54); format: in vivo; conditions: Herbicide No. 18 0.14 Kg/Ha, all PPI
Source text: The test in this example paralleled that in Example 51, except the procedure was according to Procedure IV above and the herbicides used were No. 1 (MON-12000); No. 21 (XRD-498) and, again, No. 18 (PURSUIT); the biocide was, again, MOCAP®. Observations were taken thirteen (13) days after PPI treatment with biocide and antidote.
This test was identical to that in Example 52, except for use of a different biocide, DIAZINON (Biocide No. 5, a nematicide and soil insecticide).
This test was also identical to that in the preceding two examples, except that the biocide was malathion (No. 7, an insecticide).
This test was identical to the preceding ones, except the biocide was DPX-43898 (No. 6, active ingredient in FORTRESS® insecticide, a soil insecticide). Also, the observation time was fourteen (14) days after PPI initiation.

Corn [3] = test system: Corn
Corn [4] = assay: whole plant or invertebrate; conditions: Zea mays, iv, Herbicide No. 18 0.14 Kg/Ha, all PPI
[5] = Herbicide No. 18 0.0175 Kg/Ha POE alone, Table 17
[6] = Herbicide No. 18 0.0175 Kg/Ha POE alone, Table 18
[7] = Herbicide No. 18 alone, POE 5 DAP, observed 13 DAP
[8] = no antidote, […], observed 10 days after herbicide application
[9] = 312 h, Table 52, where applied Biocide No. 5 8.96 kg/Ha and antidote 4.48 Kg/Ha, observed 13 days after treatment
[10] = 336 h, Table 54, where applied Biocide No. 6 8.96 kg/Ha and antidote 4.48 Kg/Ha, observed 14 days after PPI initiation

In the case of `CC(C)C1(C)N=C(c2ncccc2C(=O)O)NC1=O` (centres unmarked) [Herbicide No. 18, 3-Pyridinecarboxylic acid, 2-[4,5-dihydro-4-methyl-4-(1-methylethyl)-5-oxo-1H-imidazol-2-yl]-, reference compound], the “% Inhibition SHCA” value (Shattercane (SHCA); [5]) is reported as 65%, the “% Inhibition SHCA” value (Shattercane (SHCA); [6]) is reported as 45% and the “% Inhibition SHCA” value (Shattercane (SHCA); [7]) is reported as 20%. The “% Inhibition SHCA” value (Shattercane (SHCA); Table 50, Herbicide No. 18 0.017 Kg/Ha POE, where applied Biocide No. 8 8.96 kg/Ha and antidote 4.48 Kg/Ha PPI, observed 9 days after POE) was 40%, the “% Inhibition SHCA” value (Shattercane (SHCA); [8]) was 60% and the “% Inhibition VELE” value (Velvetleaf (VELE) [1]; [5]) was 80%. For the same compound, the “% Inhibition VELE” value (Velvetleaf (VELE) [1]; [6]) was 85%, the “% Inhibition VELE” value (Velvetleaf (VELE) [1]; in vivo) was 80% and the “% Inhibition VELE” value (Velvetleaf (VELE) [1]; [8]) was 80%. It also gave an inhibition at 140 g/ha (Giant foxtail (GIFT)) of 75%, an inhibition at 140 g/ha (Velvetleaf (VELE) [2]; 312 h, Table 51, where applied Biocide No. 8 8.96 kg/Ha and antidote 4.48 Kg/Ha, observed 13 days after treatment) of 65% and an inhibition at 140 g/ha (Velvetleaf (VELE) [2]; [9]) of 75%. It also gave an inhibition at 140 g/ha (Velvetleaf (VELE) [2]; [10]) of 70%, an inhibition at 140 g/ha (SJCA; [9]) of 75% and an inhibition at 140 g/ha (SJCA; 312 h, Table 53, where applied Biocide No. 7 8.96 kg/Ha and antidote 4.48 Kg/Ha, observed 13 days after treatment) of 70%. The inhibition at 140 g/ha (SJCA; [10]) was 75%, the “% Inhibition Corn” value (Corn [3]; [5]) was 15% and the “% Inhibition Corn” value (Corn [3]; [6]) was 10%. For the same compound, the “% Inhibition Corn” value (Corn [3]; [7]) was 5%, the inhibition at 140 g/ha (Corn [4]; 312 h, read-out: % Inhibition Corn, Table 51, where applied Biocide No. 8 8.96 kg/Ha and antidote 4.48 Kg/Ha, observed 13 days after treatment) was 15% and the inhibition at 140 g/ha (Corn [4]; 312 h, read-out: % Inhibition Corn, Table 52, where applied Biocide No. 5 8.96 kg/Ha and antidote 4.48 Kg/Ha, observed 13 days after treatment) was 10%. The inhibition at 140 g/ha (Corn [4]; 312 h, read-out: % Inhibition Corn, Table 53, where applied Biocide No. 7 8.96 kg/Ha and antidote 4.48 Kg/Ha, observed 13 days after treatment) was 15% and the inhibition at 140 g/ha (Corn [4]; 336 h, read-out: % Inhibition Corn, Table 54, where applied Biocide No. 6 8.96 kg/Ha and antidote 4.48 Kg/Ha, observed 14 days after PPI initiation) was 15%.
